Key:
southern crabgrass [1] = assay: Test Example 4: herbicidal effect by soil treatment (Table 19, symbol F); format: in vivo, southern crabgrass (Digitaria ciliaris); details: amount of applied herbicide 320 g/ha
In short: (§1)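 Herbicidal effect was rated 3 weeks after treatment, using the scoring criteria of an earlier test. The compound, formulated as an emulsion and diluted in water to a set herbicide amount, had been sprayed uniformly on soil over freshly sown seeds. Growth took place in a greenhouse at 25° C. to 30° C.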

blackgrass [2] = assay: Test Example 4: herbicidal effect by soil treatment (Table 19, symbol J); format: in vivo, blackgrass (Alopecurus myosuroides); details: amount of applied herbicide 320 g/ha
In short: as §1

barnyard grass [3] = assay: Test Example 3: herbicidal effect by foliage application, Wagner pot (Table 18, symbol H); format: in vivo, barnyard grass (Echinochloa crus-galli); details: for herbicidal effect on barnyard grass (H): 320 g/ha; for Herbicidal effect on H (barnyard grass), foliage application: amount of applied herbicide 320 g/ha
In short: (§2)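 Plants were sown in alluvial soil held under 0.1–0.5 cm standing water and grown 14 days in a greenhouse at 25–30 °C. An emulsifiable formulation, water-diluted to the set dose, was then sprayed onto the foliage, and effects were scored three weeks later using previously defined criteria.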

persian speedwell = assay: Test Example 4: herbicidal effect by soil treatment (Table 19, symbol R); format: in vivo, Persian speedwell (Veronica persica); details: amount of applied herbicide 320 g/ha
In short: as §1

late watergrass = assay: Test Example 2: herbicidal activity, application during weed generation under submerged conditions (Table 17, symbol A); format: in vivo, late watergrass (Echinochloa oryzicola); details: AAH 320 g/ha; application during weed generation, submerged conditions
In short: (§3)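 Herbicide emulsion, diluted with water to the chosen amount, is applied onto 4 cm floodwater over alluvial soil where the weeds were co-sown and raised at 25–30° C. Application timing: 1–2 leaves. Assessment: three weeks afterwards.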

southern crabgrass [4] = assay: Test Example 5: herbicidal effect by foliage application, plastic box (Table 20, symbol F); format: in vivo, southern crabgrass (Digitaria ciliaris); details: foliage application, 320 g/ha, three weeks after application
In short: (§4)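 Foliar spray test: emulsion formulation diluted in water to a set application rate, sprayed onto 14-day-old plants raised in diluvial soil at 25° C to 30° C under glass. Both herbicidal effect and crop effect rated visually three weeks later.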

rice flat sedge = assay: Test Example 3: herbicidal effect by foliage application, Wagner pot (Table 18, symbol E); format: in vivo, rice flat sedge (Cyperus iria); details: for herbicidal effect on rice flat sedge (E): 320 g/ha; for Herbicidal effect on E (rice flat sedge), foliage application: amount of applied herbicide 320 g/ha
In short: as §2

barnyard grass [5] = assay: Test Example 5: herbicidal effect by foliage application, plastic box (Table 20, symbol H); format: in vivo, barnyard grass (Echinochloa crus-galli); details: foliage application, 320 g/ha, three weeks after application
In short: as §4

blackgrass [6] = assay: Test Example 5: herbicidal effect by foliage application, plastic box (Table 20, symbol J); format: in vivo, blackgrass (Alopecurus myosuroides); details: foliage application, 320 g/ha, three weeks after application
In short: as §4

oval-leafed pondweed [7] = assay: Test Example 2: herbicidal activity, application during weed generation under submerged conditions (Table 17, symbol C); format: in vivo, oval-leafed pondweed (Monochoria vaginalis); details: AAH 320 g/ha; application during weed generation, submerged conditions
In short: as §3

Italian ryegrass = assay: Test Example 5: herbicidal effect by foliage application, plastic box (Table 20, symbol K); format: in vivo, Italian ryegrass (Lolium multiflorum); details: foliage application, 320 g/ha, three weeks after application
In short: as §4

Japanese bulrush = assay: Test Example 1: herbicidal activity, application before weed generation under submerged conditions (Table 16, symbol B); format: in vivo, Japanese bulrush (Schoenoplectus juncoides); details: amount of applied herbicide 320 g/ha
In short: (§5)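 Emulsion formulation, water-diluted to set dose, was put onto the flooded surface (4 cm depth, alluvial soil) the same day weeds were sown and 2.5-leaf rice transplanted. After 3 weeks at 25-30 °C under glass, each species was rated 0 (≤5% kill) to 5 (≥90% kill).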

redroot pigweed = assay: Test Example 4: herbicidal effect by soil treatment (Table 19, symbol N); format: in vivo, redroot pigweed (Amaranthus retroflexus); details: amount of applied herbicide 320 g/ha
In short: as §1

oval-leafed pondweed [8] = assay: Test Example 1: herbicidal activity, application before weed generation under submerged conditions (Table 16, symbol C); format: in vivo, oval-leafed pondweed (Monochoria vaginalis); details: amount of applied herbicide 320 g/ha
In short: as §5

velvetleaf = assay: Test Example 4: herbicidal effect by soil treatment (Table 19, symbol M); format: in vivo, velvetleaf (Abutilon theophrasti); details: amount of applied herbicide 320 g/ha
In short: as §1

SMILES	F: southern crabgrass, herbicidal effect grade (southern crabgrass [1])	J: blackgrass, herbicidal effect grade (blackgrass [2])	herbicidal effect on barnyard grass (H) (barnyard grass [3])	R: persian speedwell, herbicidal effect grade (persian speedwell)	herbicidal effect rating, A: late watergrass (late watergrass)	herbicidal effect on southern crabgrass (F) (southern crabgrass [4])	herbicidal effect on rice flat sedge (E) (rice flat sedge)	herbicidal effect on barnyard grass (H) (barnyard grass [5])	herbicidal effect on blackgrass (J) (blackgrass [6])	herbicidal effect rating, C: oval-leafed pondweed (oval-leafed pondweed [7])	herbicidal effect on Italian ryegrass (K) (Italian ryegrass)	Herbicidal effect, B: Japanese bulrush (Japanese bulrush)	N: redroot pigweed, herbicidal effect grade (redroot pigweed)	Herbicidal effect, C: oval-leafed pondweed (oval-leafed pondweed [8])	M: velvetleaf, herbicidal effect grade (velvetleaf)	Herbicidal effect on H (barnyard grass), foliage application (barnyard grass [3])	Herbicidal effect on E (rice flat sedge), foliage application (rice flat sedge)
CCCC(=O)Oc1c(C)nn(C)c(=O)c1-c1c(-c2ccc(F)cc2)sc2cc(C)c(C)cc12 [5-089]	0 (Herbicidal rate of 5% or less (almost no effect))	0 (Herbicidal rate of 5% or less (almost no effect))	1 (Herbicidal rate of 5% or more and less than 20%)	0 (Herbicidal rate of 5% or less (almost no effect))	3 (Herbicidal rate of 40% or more and less than 70%)	0 (Herbicidal rate of 5% or less (almost no effect))	3 (Herbicidal rate of 40% or more and less than 70%)	0 (Herbicidal rate of 5% or less (almost no effect))	0 (Herbicidal rate of 5% or less (almost no effect))	0 (Herbicidal rate of 5% or less (almost no effect))	0 (Herbicidal rate of 5% or less (almost no effect))	0 (Herbicidal rate of 5% or less (almost no effect))	0 (Herbicidal rate of 5% or less (almost no effect))	0 (Herbicidal rate of 5% or less (almost no effect))	0 (Herbicidal rate of 5% or less (almost no effect))		
CCOc1ccccc1-c1sc2cc(C)c(C)cc2c1-c1c(O)c(C)nn(C)c1=O [5-094]	4 (Herbicidal rate of 70% or more and less than 90%)	1 (Herbicidal rate of 5% or more and less than 20%)	5 (Herbicidal rate of 90% or more (almost completely withered))	3 (Herbicidal rate of 40% or more and less than 70%)	2 (Herbicidal rate of 20% or more and less than 40%)	5 (Herbicidal rate of 90% or more (almost completely withered))	4 (Herbicidal rate of 70% or more and less than 90%)	5 (Herbicidal rate of 90% or more (almost completely withered))	4 (Herbicidal rate of 70% or more and less than 90%)	3 (Herbicidal rate of 40% or more and less than 70%)	5 (Herbicidal rate of 90% or more (almost completely withered))	4 (Herbicidal rate of 70% or more and less than 90%)	3 (Herbicidal rate of 40% or more and less than 70%)	4 (Herbicidal rate of 70% or more and less than 90%)	1 (Herbicidal rate of 5% or more and less than 20%)		
COc1ccccc1-c1sc2c(Br)c(OC)ccc2c1-c1c(O)c(C)nn(C)c1=O [7-002]	1 (Herbicidal rate of 5% or more and less than 20%)	0 (Herbicidal rate of 5% or less (almost no effect))		3 (Herbicidal rate of 40% or more and less than 70%)	3 (Herbicidal rate of 40% or more and less than 70%)	0 (Herbicidal rate of 5% or less (almost no effect))		5 (Herbicidal rate of 90% or more (almost completely withered))	0 (Herbicidal rate of 5% or less (almost no effect))	2 (Herbicidal rate of 20% or more and less than 40%)	5 (Herbicidal rate of 90% or more (almost completely withered))	3 (Herbicidal rate of 40% or more and less than 70%)	5 (Herbicidal rate of 90% or more (almost completely withered))	3 (Herbicidal rate of 40% or more and less than 70%)	1 (Herbicidal rate of 5% or more and less than 20%)	5 (Herbicidal rate of 90% or more (almost completely withered))	4 (Herbicidal rate of 70% or more and less than 90%)
CCCOc1ccc(-c2oc3ccccc3c2-c2c(O)c(C)nn(C)c2=O)cc1 [8-003]	3 (Herbicidal rate of 40% or more and less than 70%)	1 (Herbicidal rate of 5% or more and less than 20%)		4 (Herbicidal rate of 70% or more and less than 90%)	4 (Herbicidal rate of 70% or more and less than 90%)	2 (Herbicidal rate of 20% or more and less than 40%)		5 (Herbicidal rate of 90% or more (almost completely withered))	4 (Herbicidal rate of 70% or more and less than 90%)	3 (Herbicidal rate of 40% or more and less than 70%)	4 (Herbicidal rate of 70% or more and less than 90%)	5 (Herbicidal rate of 90% or more (almost completely withered))	5 (Herbicidal rate of 90% or more (almost completely withered))	5 (Herbicidal rate of 90% or more (almost completely withered))	1 (Herbicidal rate of 5% or more and less than 20%)	5 (Herbicidal rate of 90% or more (almost completely withered))	4 (Herbicidal rate of 70% or more and less than 90%)
C=CCOc1ccc(-c2oc3ccccc3c2-c2c(O)c(C)nn(C)c2=O)cc1 [8-004]	4 (Herbicidal rate of 70% or more and less than 90%)	0 (Herbicidal rate of 5% or less (almost no effect))		3 (Herbicidal rate of 40% or more and less than 70%)	3 (Herbicidal rate of 40% or more and less than 70%)	4 (Herbicidal rate of 70% or more and less than 90%)		3 (Herbicidal rate of 40% or more and less than 70%)	3 (Herbicidal rate of 40% or more and less than 70%)	3 (Herbicidal rate of 40% or more and less than 70%)	4 (Herbicidal rate of 70% or more and less than 90%)	5 (Herbicidal rate of 90% or more (almost completely withered))	5 (Herbicidal rate of 90% or more (almost completely withered))	4 (Herbicidal rate of 70% or more and less than 90%)	2 (Herbicidal rate of 20% or more and less than 40%)	5 (Herbicidal rate of 90% or more (almost completely withered))	4 (Herbicidal rate of 70% or more and less than 90%)
